According to US6908919B2, “Substituted polycyclic aryl and heteroaryl pyrazinones useful for selective inhibition of the coagulation cascade” (Pharmacia Corporation, priority 1999, dated 2005):
Where two headings read alike, the source gives them in different places.

Experiments:
[1] = target: T1, recombinant soluble tissue factor and recombinant human factor VIIa (TF-VIIa) (Homo sapiens, UniProt P08709); assay: TF-VIIa Assay; format: biochemical
T1 construct: conversion of coagulation factor VII to VIIa by Xa; purchased American Diagnostica, Greenwich Conn; host or cells: VIIa purchased; soluble TF made in house in E. coli

Human factor Xa = Human factor Xa (Homo sapiens, UniProt P00742); assay: Xa Assay; format: biochemical; parameters: purchased Enzyme Research Laboratories, South Bend Ind; conditions: for inhibition at 100 µM / % Inhibition Factor Xa at 100 μM: at 100 μM inhibitor
Human factor Xa, sequence (P00742 41-179 limits assumed): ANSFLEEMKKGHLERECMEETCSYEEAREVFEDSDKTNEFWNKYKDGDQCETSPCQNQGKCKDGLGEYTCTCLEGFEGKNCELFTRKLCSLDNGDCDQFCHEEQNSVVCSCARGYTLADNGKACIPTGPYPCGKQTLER
Human factor Xa, sequence (P00742 235-488 limits assumed): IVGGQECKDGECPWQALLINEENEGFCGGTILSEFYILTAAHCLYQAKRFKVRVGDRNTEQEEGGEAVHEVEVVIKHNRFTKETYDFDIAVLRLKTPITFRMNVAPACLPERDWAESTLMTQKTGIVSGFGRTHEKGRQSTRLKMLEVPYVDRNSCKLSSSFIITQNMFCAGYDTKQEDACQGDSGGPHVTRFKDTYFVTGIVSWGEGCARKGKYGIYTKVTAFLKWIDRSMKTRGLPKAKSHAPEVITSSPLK

T1 sequence (P08709 61-212 limits assumed): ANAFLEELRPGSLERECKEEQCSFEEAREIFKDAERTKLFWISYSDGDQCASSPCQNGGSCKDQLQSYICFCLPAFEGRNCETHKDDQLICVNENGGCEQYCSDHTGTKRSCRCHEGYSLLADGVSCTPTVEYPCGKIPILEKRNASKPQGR
T1 sequence (P08709 213-466 limits assumed): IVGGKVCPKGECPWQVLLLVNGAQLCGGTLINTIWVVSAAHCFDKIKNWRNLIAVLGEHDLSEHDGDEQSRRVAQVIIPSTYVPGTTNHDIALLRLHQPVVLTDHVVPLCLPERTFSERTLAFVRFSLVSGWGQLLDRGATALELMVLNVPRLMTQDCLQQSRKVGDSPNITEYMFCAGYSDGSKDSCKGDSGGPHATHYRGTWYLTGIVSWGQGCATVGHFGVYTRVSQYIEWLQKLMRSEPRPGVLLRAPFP
T1 sequence (P13726 33-251 partner limits assumed): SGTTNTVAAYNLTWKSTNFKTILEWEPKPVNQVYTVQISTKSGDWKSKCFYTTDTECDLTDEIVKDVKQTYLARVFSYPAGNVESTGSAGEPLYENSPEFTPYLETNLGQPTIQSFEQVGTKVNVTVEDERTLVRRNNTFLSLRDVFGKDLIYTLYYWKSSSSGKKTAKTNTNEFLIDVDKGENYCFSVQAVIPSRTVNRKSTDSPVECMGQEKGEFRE

Structure (SMILES)	% Inhibition TF-VIIa (100 µM) ([1]; inhibitor at 100 µM)	% Inhibition Factor Xa (100 µM) (Human factor Xa; inhibitor at 100 µM)	also measured
N=C(N)c1ccc(CNC(=O)Cn2c(-c3ccc(-c4ccccc4)cc3)c(Cl)nc(NCCc3ccccc3)c2=O)cc1 [1471-71]			% Inhibition TF-VIIa (30 µM) ([1]; at 30 µM inhibitor): 6%; % Inhibition Factor Xa (30 µM) (Human factor Xa; at 30 µM inhibitor): 0%
O=C(Cn1c(-c2ccc(Cl)cc2)c(Cl)nc(NCCc2ccc(Cl)cc2)c1=O)NCCc1ccncc1 [Example E-0028]	0%	0%	
O=C(Cn1c(CCc2ccccc2)c(Cl)nc(NCCN2CCOCC2)c1=O)NCCc1ccncc1 [Example E-0071]	0%	0%	
O=C(Cn1c(-c2ccc3c(c2)OCO3)c(Cl)nc(NCCc2cccc(Cl)c2)c1=O)NCCc1ccncc1 [Example E-0043]	0%	0%	
O=C(Cn1c(CCc2ccccc2)c(Cl)nc(NCCc2cccnc2)c1=O)NCCc1ccncc1 [Example E-0069]	0%	0%	
CC(C)Nc1nc(Cl)c(-c2cc(N)cc(C(=O)N(C)Cc3ccccc3)c2)n(CC(=O)NCc2ccc(C(=N)N)cc2)c1=O [Example 128-2]			IC50 ([1]; read-out: IC50 TF-VIIa): 25.6 nM; inhibition at 100 µM (Human factor Xa): 41%
Nc1cccc(-c2c(Cl)nc(NC3CCC3)c(=O)n2CC(=O)NCc2ccccc2)c1 [Example 99]			% Inhibition TF-VIIa (30 µM) ([1]; at 30 µM inhibitor): 6% @ 30; % Inhibition Factor Xa (30 µM) (Human factor Xa; at 30 µM inhibitor): 8% @ 30
CC(CC(=O)O)Nc1nc(Cl)c(-c2cccc(N)c2)n(CC(=O)NCc2ccc(C(=N)N)cc2)c1=O (stereo not drawn) [Example 130]			IC50 ([1]; read-out: IC50 TF-VIIa, cell printed 'at 100 μM' without %, cell adds 'at 100 μM'): 180 nM; % Inhibition Factor Xa at 100 μM (Human factor Xa): 24% at 100 μM
O=C(Cn1c(Cc2ccccc2)c(Cl)nc(NCc2ccccc2)c1=O)NCCc1ccncc1 [Example E-0057]	0%	6%	
N=C(N)c1ccc(CNC(=O)C(Cc2ccccc2)n2c(-c3ccccc3)c(Cl)nc(NCCc3ccccc3)c2=O)cc1 (stereo not drawn) [Example 1517-14]			% Inhibition TF-VIIa (30 µM) ([1]; at 30 µM): 30%; % Inhibition Factor Xa (30 µM) (Human factor Xa; at 30 µM): 0%
CC(C)Nc1nc(Cl)c(-c2cc(N)cc(C(=O)NCc3ccc(Br)cc3)c2)n(CC(=O)NCc2ccc(C(=N)N)cc2)c1=O [Example 128-8]			IC50 ([1]; read-out: IC50 TF-VIIa): 67 nM; % Inhibition Factor Xa at 100 μM (Human factor Xa): 44% at 100 μM
COC(=O)c1cc(N)cc(-c2c(Cl)nc(NC(C)C)c(=O)n2CC(=O)NCc2ccc(C(=N)N)cc2)c1 [Example 125]			IC50 ([1]; read-out: IC50 TF-VIIa): 38 nM; inhibition at 100 µM (Human factor Xa): 36%
O=C(Cn1c(-c2ccc3c(c2)OCO3)c(Cl)nc(NCCc2ccccc2)c1=O)NCCc1ccncc1 [Example E-0042]	0%	0%	
O=C(Cn1c(-c2ccc3c(c2)OCO3)c(Cl)nc(NCc2ccccc2)c1=O)NCCc1ccncc1 [Example E-0041]	0%	0%	
N=C(N)c1ccc(CNC(=O)Cn2c(-c3ccc4c(c3)OCO4)c(Cl)nc(NCCN3CCOCC3)c2=O)cc1 [1471-44]			% Inhibition TF-VIIa (30 µM) ([1]; at 30 µM inhibitor): 34%; % Inhibition Factor Xa (30 µM) (Human factor Xa; at 30 µM inhibitor): 13%
CC(C)Nc1nc(Cl)c(-c2cc(N)cc(C(N)=O)c2)n(CC(=O)NCc2ccc(C(=N)N)cc2)c1=O [Example 128-1]			IC50 ([1]; read-out: IC50 TF-VIIa): 22 nM; inhibition at 100 µM (Human factor Xa): 25%
O=C(Cn1c(-c2ccccc2)c(Cl)nc(NCCc2ccccc2)c1=O)NCCc1ccncc1 [Example E-0010]	0%	0%	
Cc1cc(Cl)cc(Cl)c1CNc1nc(Cl)c(-c2ccccc2)n(CC(=O)NCc2ccc(C(=N)N)cc2)c1=O [1512-45]			% Inhibition TF-VIIa (30 µM) ([1]; at 30 µM inhibitor): 27%; % Inhibition Factor Xa (30 µM) (Human factor Xa; at 30 µM inhibitor): 11%
O=C(Cn1c(-c2ccc(Cl)cc2)c(Cl)nc(NCCc2ccccc2)c1=O)NCCc1ccncc1 [Example E-0026]	0%	0%	
O=C(Cn1c(-c2ccc(-c3ccccc3)cc2)c(Cl)nc(NCCc2ccc(Cl)cc2)c1=O)NCCc1ccncc1 [Example E-0118]			% Inhibition TF-VIIa (100 µM) [1]: 12%; % Inhibition Factor Xa (100 µM) (Human factor Xa): 3%
COc1ccc(-c2c(Cl)nc(NCCN3CCOCC3)c(=O)n2CC(=O)NCCc2ccncc2)cc1 [Example E-0039]	0%	1%	
Cc1c(Cl)nc(NCCc2ccncc2)c(=O)n1CC(=O)NCCc1ccncc1 [Example E-0006]	2%	0%	
Cc1c(Cl)nc(NCc2ccccc2)c(=O)n1CC(=O)NCCc1ccncc1 [Example E-0001]	0%	1%	
O=C(Cn1c(-c2ccccc2)c(Cl)nc(NCCc2cccc(Cl)c2)c1=O)NCCc1ccncc1 [Example E-0011]	0%	0%	
N=C(N)c1ccc(CNC(=O)Cn2c(-c3ccccc3)c(Cl)nc(NCc3cccc(OC(F)(F)F)c3)c2=O)cc1 [1512-40]			% Inhibition TF-VIIa (30 µM) ([1]; at 30 µM inhibitor): 40%; % Inhibition Factor Xa (30 µM) (Human factor Xa; at 30 µM inhibitor): 3%
O=C(Cn1c(CCc2ccccc2)c(Cl)nc(NCc2ccccc2)c1=O)NCCc1ccncc1 [Example E-0065]	0%	0%	
O=C(Cn1c(-c2ccc(-c3ccccc3)cc2)c(Cl)nc(NCc2ccccc2)c1=O)NCCc1cccnc1 [Example E-0110]			% Inhibition TF-VIIa (100 µM) [1]: 0%; % Inhibition Factor Xa (100 µM) (Human factor Xa): 3%
